Tests used:
[1] = multiple-trial passive avoidance: learning; type: in vivo, male Sprague-Dawley rats
Protocol: To evaluate whether a compound can promote learning, the following test is carried out. […] Rats which remain on the mat for this period have acquired the avoidance reflex and are replaced in their original cage without receiving the electric shock. […] The results obtained in the test used to evaluate learning are given in columns 3 and 4. […] The results were analyzed by the Student test.

serotonergic activity = experiment: "wet dog shake" (WDS) behavior, serotonergic activity; type: in vivo, male Sprague-Dawley rats; conditions: counted over 30 minutes
Protocol: A decrease in serotonergic activity has been correlated with the occurrence of affective disorders, such as depression and anxiety. […] The test is carried out in the morning on male Sprague-Dawley rats (±180 g), divided the previous day into groups of 8 animals in residence cages. The cage used for the tests is a transparent enclosure of 12×24×30 cm in height, the floor of which is covered with a layer of sand. The compounds to be tested, dissolved either in physiological salt solution or in a citrate buffer of pH 5, are administered intraperitoneally in a different dose for each group treated. The control groups receive an intraperitoneal injection of the same vehicle (either physiological salt solution or citrate buffer). […] The mean values of the results are calculated and analyzed statistically by the Mann-Whitney method. The mean values of the number of shakes obtained for the compounds according to the invention administered intraperitoneally at the doses indicated (in mg/kg) are given in Table V below.

[2] = system: bronchospasm induced by acetylcholine; experiment: bronchospasmolytic activity (Konzett and Roessler), bronchospasm induced by acetylcholine; type: in vivo, Dunkin-Hartley guinea-pig; conditions: Cavia porcellus; intravenous; acetylcholine-induced bronchospasm; read-out: Doses (ID50), Acetylcholine
Protocol: This activity was measured in the Dunkin-Hartley guinea-pig by the method of H. KONZETT and […] (Naunyn Schmiedebergs Arch. exp. Path. […] The anesthetized (urethane) and curarized (gallamine) guinea-pig is placed under assisted respiration. The endotracheal pressure is recorded. […] The compound to be tested is also administered intravenously two minutes before the administration of the spasmogen and then in 3 to 4 cumulative doses in increasing amounts at intervals of 15 minutes. Six animals per compound to be tested and per spasmogen are used.

[3] = system: longitudinal muscles of the ileum contracted by histamine; experiment: potentiation of the myorelaxing effect of isoprenaline on the ileum; type: cell-based, Dunkin-Hartley guinea-pigs; conditions: with isoprenaline 10^-7 mole/l; histamine 3.2 μmoles/l
Protocol: (cf. R. A. TURNER, "Screening Methods in Pharmacology", Ed. Acad. Press, San Diego, 1965, chapter IV, pages 43-47). […] Inhibition cycle: When the successive contractions induced by the histamine injections have become reproducible, the compound to be tested is injected immediately after the second wash. The contraction induced by the following injection of histamine is measured and compared with the average of the three preceding contractions caused by the repeated injections of histamine (control contractions). From the result obtained, the percentage inhibition of the contraction is calculated. Several cycles of histamine injection are then performed again, until the contractions of the muscle become reproducible again; the muscle is then ready for testing of another compound. The potentiating effect of a compound is measured in the course of a so-called "potentiation" cycle, which comprises three successive inhibition cycles. […] In the course of the second inhibition cycle, the percentage inhibition of the contraction obtained with the compound to be tested, injected alone at a given dose, is determined. In the third inhibition cycle, isoprenaline and the compound to be tested are injected simultaneously, and the percentage inhibition of the contraction is calculated for the dose used of the compound tested. The same experiments are repeated for each of the doses of the compounds tested.

cAMP in PMN granulocytes = experiment: increase in the level of cAMP in PMN granulocytes; type: cell-based, Rat; conditions: […]10^-6 mole per liter; PGE1 10^-6 mole/liter; control 4.3
Description: Polymorphonuclear neutrophil granulocytes (PMN) are cells which are mobilized during inflammatory phenomena and which can be stimulated by various compounds, such as, for example, formylmethionyl-leucylphenylalanine (FMLP) or prostaglandins E (PGE1). The PMN granulocytes respond to these extracellular stimuli with an activation of the oxygen metabolism with release of toxic oxygenated metabolites. An excessive response of the PMN granulocytes may be the cause of a painful inflammation and is also accompanied by a reduction in the level of cyclic adenosine monophosphate (cAMP) in these granulocytes. […] The reaction is then stopped by addition of 1 ml of propanol. After centrifugation at 15,000 g for 3 minutes, the supernatant is recovered and evaporated and the amount of cAMP in the residue is determined by radioimmunological assay according to the process recommended by the supplier of the reagent used for this purpose (Amersham). A control test is carried out under the same conditions, but in the absence of the compound to be tested.

| Compound | Average number of shakes (serotonergic activity; 1.0 mg/kg i.p.) | ED50 [2] | Minimum potentiating dose (MPD) [3] | Amount of cAMP produced (cAMP in PMN granulocytes) | other results |
| --- | --- | --- | --- | --- | --- |
| CCCc1nc(NC2CC2)nc(N2CCOCC2)n1 [Compound 1, 2-Cyclopropylamino-4-morpholino-6-n-propyl-1,3,5-triazine] | 7.8 ± 1.6 shakes | 0.1 µmol/kg | 0.032 µmol/L | 21.0 picomoles per 10^7 cells | Learning, average number of trials, group 2 ([1]; 3.0 mg/kg i.p.): 1.4 trials |
| CCc1nc(NC2CC2)nc(N2CCOCC2)n1 [Compound 2] | 10.0 ± 3.5 shakes | 0.5 µmol/kg | 1.0 µmol/L |  | Learning, average number of trials, group 2 ([1]; 1.0 mg/kg i.p.): 2.7 trials |
| C1CN(c2nc(NC3CC3)nc(C3CC3)n2)CCO1.Cl [Compound 3, 2-cyclopropyl-4-cyclopropylamino-6-morpholino-1,3,5-triazine hydrochloride] | 11.9 ± 2.7 shakes | 0.07 µmol/kg | 0.032 µmol/L | 23.2 picomoles per 10^7 cells | Learning, average number of trials, group 2 ([1]; 1.0 mg/kg i.p.): 1.9 trials; Average number of shakes (serotonergic activity; 0.3 mg/kg i.p.): 5.1 ± 1.0 shakes |
| C1CC(c2nc(NC3CC3)nc(N3CCOCC3)n2)C1 [Compound 4, 2-cyclobutyl-4-cyclopropylamino-6-morpholino-1,3,5-triazine] |  | 0.03 µmol/kg | 0.032 µmol/L | 17.7 picomoles per 10^7 cells | Learning, average number of trials, group 2 ([1]; 2.8 mg/kg i.p.): 1.9 trials; Average number of shakes (serotonergic activity; 2.8 mg/kg i.p.): 10.6 ± 4.3 shakes |
| CCCc1nc(NC2CC2)nc(N2CCC(O)CC2)n1 [Compound 5] |  | 0.1 µmol/kg | 1.0 µmol/L | 11.6 picomoles per 10^7 cells | Learning, average number of trials, group 2 ([1]; 2.8 mg/kg i.p.): 2.3 trials; Average number of shakes (serotonergic activity; 2.8 mg/kg i.p.): 8.4 ± 1.6 shakes |
| CCCc1nc(NC2CC2)nc(N(CCO)CCO)n1 [Compound 6] | 1.9 ± 0.5 shakes | 0.3 µmol/kg | 1.0 µmol/L | 14.6 picomoles per 10^7 cells |  |
| OCCN(CCO)c1nc(NC2CC2)nc(C2CC2)n1 [Compound 7] |  | 0.7 µmol/kg | 0.32 µmol/L | 15.8 picomoles per 10^7 cells | Learning, average number of trials, group 2 ([1]; 2.8 mg/kg i.p.): 1.9 trials; Average number of shakes (serotonergic activity; 2.8 mg/kg i.p.): 7.9 ± 1.8 shakes |
| CCCc1nc(NC2CC2)nc(N2CC3CCC(C2)O3)n1 [Compound 11] |  | 0.09 µmol/kg | 0.032 µmol/L | 16.2 picomoles per 10^7 cells | Learning, average number of trials, group 2 ([1]; 3.3 mg/kg i.p.): 1.8 trials; Average number of shakes (serotonergic activity; 1.1 mg/kg i.p.): 4.3 ± 1.4 shakes |
| CC(C)c1nc(NC2CC2)nc(N2CC3CCC(C2)O3)n1 [Compound 12] |  | 0.2 µmol/kg | 0.01 µmol/L | 16.8 picomoles per 10^7 cells | Learning, average number of trials, group 2 ([1]; 1.0 mg/kg i.p.): 1.7 trials |
| OC1CN(c2nc(NC3CC3)nc(C3CC3)n2)C1 [Compound 13] |  | 1.3 µmol/kg | 1.0 µmol/L |  | Learning, average number of trials, group 2 ([1]; 2.5 mg/kg i.p.): 2.1 trials; Average number of shakes (serotonergic activity; 2.5 mg/kg i.p.): 5.6 ± 1.8 shakes |
| COC1CN(c2nc(NC3CC3)nc(C3CC3)n2)C1 [Compound 14] |  | 0.5 µmol/kg | 1.0 µmol/L |  | Learning, average number of trials, group 2 ([1]; 2.6 mg/kg i.p.): 1.5 trials; Average number of shakes (serotonergic activity; 0.8 mg/kg i.p.): 2.1 ± 0.7 shakes |
| C1CC1Nc1nc(C2CC2)nc(N2CC3CCC(C2)O3)n1 [Compound 16] | 10.6 ± 1.8 shakes | 0.05 µmol/kg | 0.032 µmol/L |  | Learning, average number of trials, group 2 ([1]; 3.25 mg/kg i.p.): 2.2 trials |

Source: US5348956A, “Substituted cyclopropylamino-1,3,5-triazines” (UCB S.A., priority 1991, dated 1994)
